{"source": "patent US4393052A", "about": "“Antitumor anthracycline glycosides, their preparation, intermediates therefor, and compositions and use thereof” (priority 1980, dated 1983)", "key": {"HeLa cells": {"tested_on": "HeLa cells", "experiment": "Activity on HeLa cells cloning efficiency in vitro", "assay_type": "cell-based", "settings": "for ID50 / IC50: several values = separate experiments; for ID50: 1440 min; for activity on HeLa cells cloning efficiency in vitro (in words): compared with daunorubicin; for activity at 0.1 µg/mL: dose 100 ng/ml", "from_the_text": "Activity on HeLa cells cloning efficiency in vitro. Treatment"}, "P388 ascitic leukemia": {"tested_on": "P388 ascitic leukemia", "experiment": "Activity against P388 ascitic leukemia", "assay_type": "in vivo, mice", "settings": "for T/C (median survival time of treated mice/median survival time of controls) / Toxicity deaths: day 1 after tumor inoculation", "protocol": "As regards the in vivo tests, preliminary experiments were carried out on P388 ascitic leukemia.\nActivity against P388 ascitic leukemia. Treatment i.p. on day\n1 after tumor inoculation.\n^a Median survival time of treated mice/median survival time of […]"}, "[1]": {"settings": "HeLa cloning efficiency, treatment for 24 hours"}, "[2]": {"settings": "Homo sapiens, HeLa, 24 h, HeLa cloning efficiency, treatment for 24 hours, read-out: ID50 (the source's name)"}, "[3]": {"settings": "2.9 mg/kg i.p., data of 3 experiments"}, "[4]": {"settings": "Homo sapiens, HeLa, 24 h, 24 hours, read-out: % of controls"}}, "note": "“And” between values parts separate entries of the source, which are not always exact repeats. Identical values can stand only once. Like-named read-outs stand apart in the source and are kept apart here.", "data": [{"smiles": "C=C1[C@@H](NC(=O)C(F)(F)F)C[C@H](O[C@H]2C[C@](O)(C(C)=O)Cc3c(O)c4c(c(O)c32)C(=O)c2c(OC)cccc2C4=O)O[C@H]1C", "note": "[IV-A, 4'-deoxy-4'-C-methylene-N-trifluoroacetyl-daunorubicin]", "values": [{"measurement": "ID50", "setting": "HeLa cells; [1]", "value": 1.3, "unit": "µg/mL"}, {"measurement": "IC50", "setting": "HeLa cells; [2]", "value": 1.6, "unit": "µg/mL"}, {"measurement": "activity at 0.8 µg/mL", "setting": "HeLa cells; Homo sapiens, HeLa, 24 h, dose 800 ng/ml, 24 hours, read-out: % of controls", "value": 115, "unit": "%"}, {"measurement": "activity at 3.2 µg/mL", "setting": "HeLa cells; Homo sapiens, HeLa, 24 h, dose 3200 ng/ml, 24 hours, read-out: % of controls", "value": 7, "unit": "%"}, {"measurement": "activity on HeLa cells cloning efficiency in vitro (in words)", "setting": "HeLa cells", "value": "markedly less active than daunorubicin"}, {"measurement": "% of controls", "setting": "HeLa cells; dose 800 ng/ml, 24 hours", "value": 116, "unit": "%"}, {"measurement": "T/C (median survival time of treated mice/median survival time of controls)", "setting": "P388 ascitic leukemia; 100 mg/kg i.p.", "value": 110, "unit": "%"}, {"measurement": "Toxicity deaths", "setting": "P388 ascitic leukemia; 100 mg/kg i.p.", "value": "0/5"}, {"measurement": "T/C (median survival time of treated mice/median survival time of controls)", "setting": "P388 ascitic leukemia; 200 mg/kg i.p.", "value": 110, "unit": "%"}, {"measurement": "Toxicity deaths", "setting": "P388 ascitic leukemia; 200 mg/kg i.p.", "value": "0/5"}, {"measurement": "T/C (median survival time of treated mice/median survival time of controls)", "setting": "P388 ascitic leukemia; 400 mg/kg i.p.", "value": 130, "unit": "%"}, {"measurement": "Toxicity deaths", "setting": "P388 ascitic leukemia; 400 mg/kg i.p.", "value": "0/3"}]}, {"smiles": "COc1cccc2c1C(=O)c1c(O)c3c(c(O)c1C2=O)C[C@@](O)(C(C)=O)C[C@@H]3O[C@H]1C[C@H](N)[C@H](O)[C@H](C)O1", "note": "[Daunorubicin, reference compound]", "values": [{"measurement": "ID50", "setting": "HeLa cells; [1]", "value": 0.0083, "unit": "µg/mL"}, {"measurement": "activity at 0.00625 µg/mL", "setting": "HeLa cells; Homo sapiens, HeLa, 24 h, read-out: % of controls, dose 6.25 ng/ml, 24 hours, data of 3 experiments", "value": 66, "unit": "%"}, {"measurement": "IC50", "setting": "HeLa cells; Homo sapiens, HeLa, 24 h, read-out: ID50, HeLa cloning efficiency, treatment for 24 hours", "value": 0.009, "unit": "µg/mL"}, {"measurement": "% of controls", "setting": "HeLa cells; dose 3.12 ng/ml, 24 hours, data of 3 experiments", "value": "105% and 100% and 70%"}, {"measurement": "% of controls", "setting": "HeLa cells; dose 6.25 ng/ml, 24 hours, data of 3 experiments", "value": "69% and 57%"}, {"measurement": "T/C (median survival time of treated mice/median survival time of controls)", "setting": "P388 ascitic leukemia; [3]", "value": "170% and 172% and 180%"}, {"measurement": "Toxicity deaths", "setting": "P388 ascitic leukemia; [3]", "value": "0/10 and 0/6"}, {"measurement": "T/C (median survival time of treated mice/median survival time of controls)", "setting": "P388 ascitic leukemia; 4.4 mg/kg i.p.", "value": "170% and 168% and 185%"}, {"measurement": "Toxicity deaths", "setting": "P388 ascitic leukemia; 4.4 mg/kg i.p.", "value": "1/10 and 0/6 and 0/10"}, {"measurement": "T/C (median survival time of treated mice/median survival time of controls)", "setting": "P388 ascitic leukemia; 6.6 mg/kg i.p.", "value": "155% and 168% and 190%"}, {"measurement": "Toxicity deaths", "setting": "P388 ascitic leukemia; 6.6 mg/kg i.p.", "value": "6/10 and 5/5 and 4/10"}]}, {"smiles": "COc1cccc2c1C(=O)c1c(O)c3c(c(O)c1C2=O)CC(O)(C(C)=O)CC3OC1CC(N)C(C)C(C)O1", "note": "(stereo not drawn) [V-B, 4'-deoxy-4'-epi-C-methyl-daunorubicin]", "values": [{"measurement": "IC50", "setting": "HeLa cells; [2]", "value": 0.0077, "unit": "µg/mL"}, {"measurement": "activity at 0.0062 µg/mL", "setting": "HeLa cells; Homo sapiens, HeLa, 24 h, dose 6.2 ng/ml, 24 hours, read-out: % of controls", "value": 54, "unit": "%"}, {"measurement": "activity at 0.025 µg/mL", "setting": "HeLa cells; Homo sapiens, HeLa, 24 h, dose 25 ng/ml, 24 hours, read-out: % of controls", "value": 4, "unit": "%"}, {"measurement": "activity at 0.1 µg/mL", "setting": "HeLa cells; [4]", "value": 0, "unit": "%"}, {"measurement": "activity on HeLa cells cloning efficiency in vitro (in words)", "setting": "HeLa cells", "value": "maintained a high cytotoxic activity"}, {"measurement": "T/C (median survival time of treated mice/median survival time of controls)", "setting": "P388 ascitic leukemia; 4.4 mg/kg i.p.", "value": 130, "unit": "%"}, {"measurement": "Toxicity deaths", "setting": "P388 ascitic leukemia; 4.4 mg/kg i.p.", "value": "0/10"}, {"measurement": "T/C (median survival time of treated mice/median survival time of controls)", "setting": "P388 ascitic leukemia; 6.6 mg/kg i.p.", "value": 140, "unit": "%"}, {"measurement": "Toxicity deaths", "setting": "P388 ascitic leukemia; 6.6 mg/kg i.p.", "value": "0/10"}, {"measurement": "T/C (median survival time of treated mice/median survival time of controls)", "setting": "P388 ascitic leukemia; 10.0 mg/kg i.p.", "value": 140, "unit": "%"}, {"measurement": "Toxicity deaths", "setting": "P388 ascitic leukemia; 10.0 mg/kg i.p.", "value": "0/9"}]}, {"smiles": "COc1cccc2c1C(=O)c1c(O)c3c(c(O)c1C2=O)C[C@@](O)(C(C)=O)C[C@@H]3O[C@H]1C[C@H](N)[C@@](O)(CN)[C@H](C)O1", "note": "[V-C, 4'-C-aminomethyl-daunorubicin]", "values": [{"measurement": "IC50", "setting": "HeLa cells; [2]", "value": 1, "unit": "µg/mL"}, {"measurement": "activity at 0.1 µg/mL", "setting": "HeLa cells; [4]", "value": 143, "unit": "%"}, {"measurement": "activity at 0.4 µg/mL", "setting": "HeLa cells; Homo sapiens, HeLa, 24 h, dose 400 ng/ml, 24 hours, read-out: % of controls", "value": 141, "unit": "%"}, {"measurement": "activity at 1.6 µg/mL", "setting": "HeLa cells; Homo sapiens, HeLa, 24 h, dose 1600 ng/ml, 24 hours, read-out: % of controls", "value": 3.8, "unit": "%"}, {"measurement": "activity on HeLa cells cloning efficiency in vitro (in words)", "setting": "HeLa cells", "value": "markedly less active than daunorubicin"}, {"measurement": "T/C (median survival time of treated mice/median survival time of controls)", "setting": "P388 ascitic leukemia; 50 mg/kg i.p.", "value": 181, "unit": "%"}, {"measurement": "Toxicity deaths", "setting": "P388 ascitic leukemia; 50 mg/kg i.p.", "value": "0/6"}, {"measurement": "T/C (median survival time of treated mice/median survival time of controls)", "setting": "P388 ascitic leukemia; 100 mg/kg i.p.", "value": 172, "unit": "%"}, {"measurement": "Toxicity deaths", "setting": "P388 ascitic leukemia; 100 mg/kg i.p.", "value": "0/5"}, {"measurement": "T/C (median survival time of treated mice/median survival time of controls)", "setting": "P388 ascitic leukemia; 200 mg/kg i.p.", "value": 204, "unit": "%"}, {"measurement": "Toxicity deaths", "setting": "P388 ascitic leukemia; 200 mg/kg i.p.", "value": "0/4"}, {"measurement": "antitumor activity compared with daunorubicin (in words)", "setting": "P388 ascitic leukemia; at a dose of 200 mg/kg", "value": "more active than daunorubicin"}]}]}
